Results as given in publication PMC11855827, “High-Throughput Screening of Five Compound Libraries for Anthelmintic Activity and Toxicity Leads to the Discovery of Two Flavonoid Compounds” (International Journal of Molecular Sciences, 2025).

System: C. elegans
Details: Table S2, C. elegans SS assay, 110 μM, averages of 4 data points

Compound | Percentage of motility inhibition 0 h [%] | Percentage of motility inhibition 24 h [%]
C/C=C(\C)C(=O)OC1C[C@H]2CC[C@@H](C1)N2C (some centres unmarked) [Tigloidin] | 0 | 0
N=C(N)c1ccc(OCCCCCOc2ccc(C(=N)N)cc2)cc1.O=S(=O)(O)CCO.O=S(=O)(O)CCO [Pentamidine (isethionate)] | 0 | 0
COc1cc(OC)c2c(=O)cc(-c3ccc(O)c(O)c3)oc2c1 [5,7‐Dimethoxyluteolin] | 24 | 13
C=C1[C@H]2CC[C@@H]3[C@H]2C(C)(C)CCC[C@]13C [(+)-Longifolene] | 3 | 1
COC(=O)C1=CO[C@@H](O[C@@H]2O[C@H](CO[C@@H]3O[C@H](CO)[C@@H](O)[C@H](O)[C@H]3O)[C@@H](O)[C@H](O)[C@H]2O)[C@@H]2C(CO)=CC[C@H]12 [Genipin 1-β-D-gentiobioside] | 0 | 17
CO[C@@H]1[C@@H](OC(N)=O)[C@@H](O)[C@H](Oc2ccc3c([O-])c(NC(=O)c4ccc(O)c(CC=C(C)C)c4)c(=O)oc3c2C)OC1(C)C.[Na+] [Novobiocin (Sodium)] | 25 | 1
O=c1c2cc(O)c(O)cc2oc2c([C@@H]3O[C@H](CO)[C@@H](O)[C@H](O)[C@H]3O)c(O)cc(O)c12 [Isomangiferin] | 28 | 46
C[C@H](CCC(=O)[O-])[C@H]1CC[C@H]2[C@@H]3CC[C@@H]4C[C@H](O)CC[C@]4(C)[C@H]3C[C@H](O)[C@]12C.[Na+] [Deoxycholic acid sodium salt] | 0 | 26
COc1cc2c3c(c1OC)-c1ccccc1C[C@H]3NCC2 [N‐Nornuciferine] | 13 | 0
COc1ccc(-c2cc(=O)c3c(O)cc(O[C@@H]4O[C@H](CO)[C@@H](O)[C@H](O)[C@H]4O)cc3o2)cc1 [Tilianin] | 13 | 3
CC(=O)O.CC(=O)O.NC(=N\CCCCCC/N=C(N)/N=C(\N)Nc1ccc(Cl)cc1)/N=C(\N)Nc1ccc(Cl)cc1 [Chlorhexidine (diacetate)] | 38 | 62
C[N+]1(C)CCC[C@H]1C(=O)[O-] [Stachydrine] | 0 | 0
Valepotriate | 0 | 7
C[C@@H]1O[C@@H](O[C@@H]2[C@@H](O)[C@H](O[C@H]3CC[C@]4(C)[C@H]5CC=C6[C@@H]7CC(C)(C)CC[C@]7(C(=O)O[C@@H]7O[C@H](CO)[C@@H](O)[C@H](O)[C@H]7O)CC[C@@]6(C)[C@]5(C)CC[C@H]4C3(C)C)O[C@H](C(=O)O)[C@H]2O)[C@H](O)[C@H](O)[C@H]1O | 6 | 0
COc1cc(/C=C/C(=O)N2CCC=CC2=O)cc(OC)c1OC [Piperlongumine] | 0 | 0
CCn1cc(C(=O)[O-])c(=O)c2ccc(C)nc21.[Na+] [Nalidixic acid (sodium salt)] | 0 | 0
C/C=C1/CN2CCc3c([nH]c4ccccc34)[C@@H]2C[C@@H]1/C(=C/OC)C(=O)OC [Geissoschizine methyl ether] | 0 | 19
COc1ccc(/C=C/C(=O)c2ccc(OC)cc2)cc1 [4,4'‐Dimetho xychalcone] | 24 | 3
CN1CCN2c3ccccc3Cc3ccccc3C2C1.Cl (centres unmarked) [Mianserin (hydrochloride)] | 0 | 0
CC(=O)O[C@@H]1CC[C@@]2(C)[C@@H](CC[C@]3(C)[C@@H]2CC=C2[C@@H]4[C@@H](C)[C@H](C)CC[C@]4(C)CC[C@]23C)[C@@]1(C)C(=O)O [3-Acetyl-beta-boswellic acid] | 15 | 21
CC(C)=CCC[C@@](C)(O)[C@H]1CC[C@]2(C)[C@@H]1[C@H](O)C[C@@H]1[C@@]3(C)CC[C@H](O)C(C)(C)[C@@H]3[C@@H](O[C@@H]3O[C@H](CO)[C@@H](O)[C@H](O)[C@H]3O)C[C@]12C [(20R)-Ginsenoside Rh1] | 13 | 5
CC1(C)C=Cc2c(ccc(C(=O)/C=C/c3ccc(O)cc3)c2O)O1 [4‐Hydroxylonchocarpin] | 11 | 9

Compound | Percentage of motility inhibition 0 h [%] | Percentage of motility inhibition 24 h [%]
[Cl-].c1c2c(cc3c1OCO3)-c1cc3ccc4c(c3c[n+]1CC2)OCO4 [Coptisine (chloride)] | 1 | 6
CN[C@@H](C)[C@H]1[C@H](O)C[C@@]2(C)[C@@H]3CC[C@H]4C(C)(C)[C@@H](NC)CC[C@@]45C[C@@]35CC[C@]12C [Cyclovirobuxine D] | 20 | 0
CC1(C)CC[C@]2(C)CC[C@]3(C)C(=CC[C@@H]4[C@@]5(C)CC[C@@H](O)[C@](C)(C(=O)O)[C@@H]5CC[C@]43C)[C@@H]2C1 [alpha-Boswellic acid] | 34 | 28
CO/N=C(\C(=O)N[C@@H]1C(=O)N2C(C(=O)[O-])=C(C[n+]3cccc4c3CCC4)CS[C@H]12)c1csc(N)n1.O=S(=O)(O)O [Cefpirome (sulfate)] | 13 | 0
CC(=O)OC[C@H]1O[C@@H](OC[C@H]2O[C@@H](OC(=O)[C@]34CCC(C)(C)C[C@H]3C3=CC[C@@H]5[C@@]6(C)CC[C@H](O[C@@H]7OC[C@H](O)[C@H](O)[C@H]7O[C@@H]7O[C@H](CO)[C@@H](O)[C@H](O)[C@H]7O)C(C)(C)[C@@H]6CC[C@@]5(C)[C@]3(C)CC4)[C@H](O)[C@@H](O)[C@@H]2O)[C@H](O)[C@@H](O)[C@@H]1O[C@@H]1O[C@@H](C)[C@H](O)[C@@H](O)[C@H]1O [Acanthopanaxoside B] | 0 | 0
C[C@@H](CO[C@@H]1O[C@H](CO)[C@@H](O)[C@H](O)[C@H]1O)[C@@H]1CC[C@@]2(CC[C@]3(C)[C@H](CC[C@@H]4[C@@]5(C)CC[C@H](O[C@@H]6O[C@H](CO)[C@@H](O)[C@H](O)[C@H]6O[C@@H]6O[C@H](CO)[C@@H](O)[C@H](O)[C@H]6O)[C@@](C)(CO[C@@H]6O[C@H](CO)[C@@H](O)[C@H](O)[C@H]6O)[C@@H]5CC[C@]43C)[C@H]2O)CO1 [Hosenkoside K] | 10 | 2
Cl.NCCCC[C@H](N)C(=O)O [L-Lysine hydrochloride] | 19 | 0
Hosenkoside C | 0 | 5
CC(C)=CCC[C@@](C)(O)[C@H]1CC[C@]2(C)[C@@H]1[C@H](O)C[C@@H]1[C@@]3(C)C[C@@H](O)[C@H](O[C@@H]4O[C@H](CO)[C@@H](O)[C@H](O)[C@H]4O[C@@H]4O[C@H](CO)[C@@H](O)[C@H](O)[C@H]4O)C(C)(C)[C@@H]3CC[C@]12C [Gypenoside LI] | 0 | 0
COc1ccc(C[C@H]2NC[C@H](O)[C@H]2OC(C)=O)cc1 [Anisomycin] | 10 | 44
C[C@H]1CC[C@H]2[C@H](C)[C@@H]3CC[C@@H]4[C@@H](C[C@H]5[C@H]4C[C@@H](O)[C@H]4C[C@@H](O)CC[C@@]45C)[C@@H]3CN2C1 [Hupehenine] | 0 | 10
Cc1cc(NS(=O)(=O)c2ccc(N)cc2)nc(C)n1 [Sulfisomidin] | 26 | 10
CC1(C)CC(NC(=O)C(=O)Nc2ccc(Cl)cc2)CC(C)(C)N1 [NBD‐556] | 45 | 11
OCC1=C[C@@H](O)[C@]2(O[C@@H]3O[C@H](CO)[C@@H](O)[C@H](O)[C@H]3O)C=CO[C@@H](O[C@@H]3O[C@H](CO)[C@@H](O)[C@H](O)[C@H]3O)[C@H]12 [Melittoside] | 0 | 4
O=C[C@H](O)[C@@H](O)[C@H](O)CO (racemic) [DL-Xylose] | 0 | 5
COc1cc2c(cc1OC)[C@H]1[C@@H](C)c3ccc(OC)c(OC)c3CN1CC2 [Corydaline] | 0 | 8
C[C@H]1CC[C@@H]2N(C1)C[C@H]1[C@@H]3C[C@H]4[C@@H](CC(=O)[C@H]5C[C@@H](O[C@@H]6O[C@H](CO)[C@@H](O)[C@H](O)[C@H]6O)CC[C@@]54C)[C@@H]3CC[C@@H]1[C@]2(C)O [Edpetiline] | 11 | 56
CC1(C)CC[C@]2(C(=O)O)CC[C@]3(C)C(=CC[C@@H]4[C@@]5(C)CC[C@@H](O)C(C)(C)[C@@H]5CC[C@]43C)[C@@H]2C1 [3-Epioleanolic acid] | 29 | 34
Theaflavin 3,3'‐digallate | 0 | 2
OC[C@H]1O[C@@H](Oc2cc3c(O)cc(O)cc3[o+]c2-c2ccc(O)c(O)c2)[C@H](O)[C@@H](O)[C@@H]1O.[Cl-] [Kuromanin (chloride)] | 34 | 5
C1=C2CCCN[C@H]2[C@@H]2C[C@H]1[C@H]1CCCCN1C2 [Aloperine] | 20 | 0
